Measured values as given in patent US11066414B2, “Cot modulators and methods of use thereof” (Gilead Sciences, Inc., priority 2015, dated 2021).
Like-named read-outs stand apart in the source and are kept apart here.

Tests used:
[1] = target: Human Cot (Homo sapiens (Human), UniProt P41279); experiment: High Throughput Cot Biochemical Assay
[2] = tested on: TNFα; experiment: Cot Monocyte TNFα Cell Based Assay
[3] = IC50 HTRF, Cot HTRF (TR-FRET KinEASE) biochemical assay, 400 μM ATP
[4] = Homo sapiens, Monocyte, read-out: EC50 TNF, LPS-stimulated human monocytes, TNFα TR-FRET
[5] = IC50 HTRF, Cot HTRF (TR-FRET) biochemical assay
[6] = Homo sapiens, Monocyte, read-out: EC50 TNF, LPS-stimulated human monocytes, TNFα
[7] = read-out: IC50 HTRF, Cot HTRF (TR-FRET KinEASE) biochemical assay, 400 μM ATP
[8] = read-out: EC50 TNF, LPS-stimulated human monocytes, TNFα TR-FRET

Human Cot, sequence (P41279 30-397): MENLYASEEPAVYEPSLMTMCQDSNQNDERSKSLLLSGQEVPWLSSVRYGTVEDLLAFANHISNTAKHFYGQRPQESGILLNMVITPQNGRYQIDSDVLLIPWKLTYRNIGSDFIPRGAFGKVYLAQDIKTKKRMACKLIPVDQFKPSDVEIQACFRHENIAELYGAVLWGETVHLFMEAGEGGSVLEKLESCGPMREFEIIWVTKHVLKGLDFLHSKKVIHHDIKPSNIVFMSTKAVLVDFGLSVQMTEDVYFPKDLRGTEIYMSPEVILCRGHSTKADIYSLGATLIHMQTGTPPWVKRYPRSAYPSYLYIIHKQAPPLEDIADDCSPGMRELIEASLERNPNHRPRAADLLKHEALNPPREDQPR

| SMILES | IC50 [1, 5] | EC50 [2, 6] | further results |
| --- | --- | --- | --- |
| Cc1nc(F)ccc1[C@H](Nc1cc(C#N)c2ncc(C#N)c(NCC34CC(C3)C4)c2c1)c1cn(C2(C(F)F)CC2)nn1 [Example 849, (S)-4-((bicyclo[1.1.1]pentan-1-ylmethyl)amino)-6-(((1-(1-(difluoromethyl)-cyclopropyl)-1H-1,2,3-triazol-4-yl)(6-fluoro-2-methylpyridin-3-yl)methyl)amino)quinoline-3,8-dicarbonitrile] | – | – | IC50 [1, 3]: 16 nM; EC50 [2, 4]: 261 nM |
| Cc1nc(F)ccc1[C@H](Nc1cc(C#N)c2ncc(C#N)c(NCC(C)(C)C(F)(F)F)c2c1)c1cn(C2(C(F)F)CC2)nn1 [Example 841] | – | – | IC50 [1, 7]: 2 nM; EC50 [2, 8]: 41 nM |
| CC(C)(C)CNc1c(C#N)cnc2c(C#N)cc(N[C@H](c3cn(C4(C(F)(F)F)CC4)nn3)c3cccc4c3CNC4)cc12 [Example 451, (S)-6-((isoindolin-4-yl(1-(1-(trifluoro-methyl)cyclopropyl)-1H-1,2,3-triazol-4-yl)methyl)amino)-4-(neopentylamino)-quinoline-3,8-dicarbonitrile] | 3 nM | 138 nM | – |
| N#CCC[C@@H](Nc1c(C#N)cnc2c(Cl)cc(N[C@H](c3cn(C4CC4)nn3)c3cccc4c3CNC4)cc12)c1ccccc1 [Example 68, 8-chloro-4-(((R)-3-cyano-1-phenyl-propyl)amino)-6-(((S)-(1-cyclopropyl-1H-1,2,3-triazol-4-yl)(isoindolin-4-yl)methyl)amino)quinoline-3-carbonitrile] | 1 nM | 51 nM | – |
| CC1(n2cc([C@@H](Nc3cc(C#N)c4ncc(C#N)c(NCC(C)(C)C(F)(F)F)c4c3)c3ccc(F)c4ncccc34)nn2)CC1 [Example 813, (S)-6-(((8-fluoroquinolin-5-yl)(1-(1-methylcyclopropyl)-1H-1,2,3-triazol-4-yl)methyl)amino)-4-((3,3,3-trifluoro-2,2-dimethylpropyl)amino)quinoline-3,8-dicarbonitrile] | – | – | IC50 [1, 3]: 2 nM; EC50 [2, 4]: 24 nM |
| Cc1nc(F)ccc1[C@H](Nc1cc(Cl)c2ncc(C#N)c(NCC(C)(C)C)c2c1)c1nnn([C@@H](C)CF)c1F [Example 952, 8-chloro-6-(((S)-(5-fluoro-1-((S)-1-fluoropropan-2-yl)-1H-1,2,3-triazol-4-yl)(6-fluoro-2-methylpyridin-3-yl)methyl)amino)-4-(neopentylamino)quinoline-3-carbonitrile] | – | – | IC50 [1, 3]: 4 nM; EC50 [2, 4]: 36 nM |
| CC(C)(C)N1CCC(n2cc([C@@H](Nc3cc(Cl)c4ncc(C#N)c(Nc5ccc(F)c(Cl)c5)c4c3)c3ccc(F)nc3)nn2)CC1 [Example 347, (S)-6-(((1-(1-(tert-butyl)piperidin-4-yl)-1H-1,2,3-triazol-4-yl)(6-fluoropyridin-3-yl)methyl)amino)-8-chloro-4-((3-chloro-4-fluorophenyl)amino)quinoline-3-carbonitrile] | 4 nM | 278 nM | – |
| Cc1nc(F)ccc1[C@H](Nc1cc(Cl)c2ncc(C#N)c(NC3CCCCC3)c2c1)c1cn(C2(C(F)(F)F)CC2)nn1 [Example 588, (S)-8-chloro-4-(cyclohexylamino)-6-(((6-fluoro-2-methylpyridin-3-yl)(1-(1-(trifluoromethyl)cyclopropyl)-1H-1,2,3-triazol-4-yl)methyl)amino)quinoline-3-carbonitrile] | 55 nM | 629 nM | – |
| N#Cc1cnc2c(Cl)cc(N[C@@H](c3ccc(F)nc3)c3c[nH]nn3)cc2c1Nc1cnc(F)c(F)c1 [Example 166, (S)-8-chloro-4-((5,6-difluoropyridin-3-yl)amino)-6-(((6-fluoropyridin-3-yl)(1H-1,2,3-triazol-4-yl)methyl)amino)quinoline-3-carbonitrile] | 6 nM | 1420 nM | – |
| N#Cc1cnc2c(Cl)cc(N[C@H](c3c[nH]nn3)c3ccc(F)nc3F)cc2c1Nc1cnc(F)c(F)c1 [Example 154, (S)-8-chloro-6-(((2,6-difluoropyridin-3-yl)(1H-1,2,3-triazol-4-yl)methyl)amino)-4-((5,6-difluoropyridin-3-yl)amino)quinoline-3-carbonitrile] | 26 nM | 1670 nM | – |
| CC[C@@H](Nc1c(C#N)cnc2c(Cl)cc(N[C@@H](c3cccnc3)c3c[nH]nn3)cc12)c1ccccc1 [Example 254, 8-chloro-4-(((R)-1-phenylpropyl)amino)-6-(((S)-pyridin-3-yl(1H-1,2,3-triazol-4-yl)methyl)amino)quinoline-3-carbonitrile] | 3 nM | 230 nM | – |
| Cc1nc(F)ccc1[C@H](Nc1cc(C#N)c2ncc(C#N)c(NCC(C)(C)C(F)(F)F)c2c1)c1cn(C2(C3CC3)CC2)nn1 [Example 867, (S)-6-(((4-(1-(1,1-bi(cyclopropan)]-1-yl)-1H-1,2,3-triazol-4-yl)(6-fluoro-2-methylpyridin-3-yl)methyl)amino)-4-((3,3,3-trifluoro-2,2-dimethylpropyl)amino)quinoline-3,8-dicarbonitrile] | – | – | IC50 [1, 7]: 3 nM; EC50 [2, 8]: 27 nM |
| C[C@@H](Nc1c(C#N)cnc2c(Cl)cc(N[C@H](c3c[nH]nn3)c3csc4c3CCN(C3COC3)C4)cc12)c1ccccc1 [Example 238, 8-chloro-6-(((S)-(6-(oxetan-3-yl)-4,5,6,7-tetrahydrothieno[2,3-c]pyridin-3-yl)(1H-1,2,3-triazol-4-yl)methyl)amino)-4-(((R)-1-phenylethyl)amino)quinoline-3-carbonitrile] | 3 nM | 901 nM | – |
| Cc1nc(F)ccc1[C@H](Nc1cc(C#N)c2ncc(C#N)c(NCC(C)(C)C)c2c1)c1cn(C(C)(C)C2CC2)nn1 [Example 850, (S)-6-(((1-{2-cyclopropylpropan-2-yl)-1H-1,2,3-triazol-4-yl)(6-fluoro-2-methylpyridin-3-yl)methyl)amino)-4-(neopentylamino)quinoline-3,8-dicarbonitrile] | – | – | IC50 [1, 3]: 6 nM; EC50 [2, 4]: 65 nM |
| N#Cc1cnc2c(Cl)cc(NC(c3cccnc3)c3cn(C4CCNCC4)nn3)cc2c1Nc1ccc(F)c(Cl)c1 (stereo not shown) [Example 405, 8-chloro-4-((3-chloro-4-fluoro-phenyl)amino)-6-(((1-(piperidin-4-yl)-1H-1,2,3-triazol-4-yl)(pyridin-3-yl)methyl)amino)quinoline-3-carbonitrile] | 2 nM | 1040 nM | – |
| [2H][C@@](Nc1cc(Cl)c2ncc(C#N)c(NCC(C)(C)C)c2c1)(c1cn(C2CC2)nn1)c1cccnc1N(C)C [Example 650, (S)-8-chloro-6-(((1-cyclopropyl-1H-1,2,3-triazol-4-yl)(2-(dimethylamino)pyridin-3-yl)methyl-d)amino)-4-(neopentylamino)quinoline-3-carbonitrile] | 179 nM | 1000 nM | – |
| COc1nccc2c([C@H](Nc3cc(Cl)c4ncc(C#N)c(NCC(C)(C)C)c4c3)c3nnn(C4(C(F)F)CC4)c3F)cccc12 [Example 923, (S)-8-chloro-6-(((1-(1-(difluoromethyl)cyclopropyl)-5-fluoro-1H-1,2,3-triazol-4-yl)(1-methoxylsoquinolin-5-yl)methyl)amino)-4-(neopentylamino)quinoline-3-carbonitrile] | – | – | IC50 [1, 7]: 16 nM; EC50 [2, 8]: 258 nM |

The next lines start with results.

| IC50 [1, 5] | EC50 [2, 6] | SMILES | further results |
| --- | --- | --- | --- |
| 9 nM | 184 nM | CC(=O)c1cc(N[C@H](c2cn(C3(C(F)(F)F)CC3)nn2)c2cccc3ncsc23)cc2c(NCC(C)(C)C)c(C#N)cnc12 [Example 453, (S)-8-acetyl-6-((benzo[d]thiazol-7-yl(1-(1-(trifluoromethyl)cyclopropyl)-1H-1,2,3-triazol-4-yl)methyl)amino)-4-(neopentylamino)quinoline-3-carbonitrile] | – |
| 11 nM | 779 nM | Cc1c([C@H](Nc2cc(Cl)c3ncc(C#N)c(NCC(C)(C)C)c3c2)c2cn(C3(C(F)F)CC3)nn2)ccc(=O)n1C [Example 732, (S)-8-chloro-6-(((1-(1-(difluoromethyl)cyclopropyl)-1H-1,2,3-triazol-4-yl)(1,2-dimethyl-6-oxo-1,6-dihydropyridin-3-yl)methyl)amino)-4-(neopentylamino)quinoline-3-carbonitrile] | – |
| 2 nM | 44 nM | CC(C)(C)CNc1c(C#N)cnc2c(Cl)cc(N[C@H](c3cn(C4CC4)nn3)c3cccc4[nH]ncc34)cc12 [Example 448, (S)-8-chloro-6-(((1-cyclopropyl-1H-1,2,3-triazol-4-yl)(1H-indazol-4-yl)methyl)-amino)-4-(neopentylamino)quinoline-3-carbonitrile] | – |
| 89 nM | 843 nM | Cc1nc(F)ccc1[C@H](Nc1cc(Cl)c2ncc(C#N)c(NCC3(C)COC3)c2c1)c1cn(C2(C(F)(F)F)CC2)nn1 [Example 792, (S)-8-chloro-6-(((6-fluoro-2-methylpyridin-3-yl)(1-(1-(trifluoromethyl)-cyclopropyl)-1H-1,2,3-triazol-4-yl)methyl)amino)-4-(((3-methyloxetan-3-yl)methyl)amino)quinoline-3-carbonitrile] | – |
| 209 nM | 1000 nM | COc1cc(N[C@H](c2cn(C3(C(F)(F)F)CC3)nn2)c2ccc(F)nc2C)cc2c(NCC(C)(C)C)c(C#N)cnc12 [Example 595, (S)-6-(((6-fluoro-2-methylpyridin-3-yl)(1-(1-(trifluoromethyl)cyclopropyl)-1H-1,2,3-triazol-4-yl)methyl)amino)-8-methoxy-4-(neopentylamino)quinoline-3-carbonitrile] | – |
| 3 nM | 69 nM | CCc1ncccc1[C@H](Nc1cc(C#N)c2ncc(C#N)c(NCC(C)(C)C)c2c1)c1cn(C2(C(F)(F)F)CC2)nn1 [Example 602, (S)-6-(((2-ethylpyridin-3-yl)(1-(1-(trifluoro-methyl)cyclopropyl)-1H-1,2,3-triazol-4-yl)methyl)amino)-4-(neopentylamino)-quinoline-3,8-dicarbonitrile] | – |
